Data on 19 compounds can be found in patent publication US12528815B2, “5-amino-8-(4-pyridyl)-[1,2,4]triazolo[4,3-c]pyrimidin-3-one compounds for use against cancer” (Nxera Pharma UK Limited, priority 2020, dated 2026).

Test [1] deals with T1, human adenosine A1 receptor (Homo sapiens, UniProt P30542).
T1 construct: expressed in transfected cells; host or cells: HEK293 cells infected with BacMam (the same paragraph also labels the preparation CHO-hA1)
T1 sequence (P30542 1-326): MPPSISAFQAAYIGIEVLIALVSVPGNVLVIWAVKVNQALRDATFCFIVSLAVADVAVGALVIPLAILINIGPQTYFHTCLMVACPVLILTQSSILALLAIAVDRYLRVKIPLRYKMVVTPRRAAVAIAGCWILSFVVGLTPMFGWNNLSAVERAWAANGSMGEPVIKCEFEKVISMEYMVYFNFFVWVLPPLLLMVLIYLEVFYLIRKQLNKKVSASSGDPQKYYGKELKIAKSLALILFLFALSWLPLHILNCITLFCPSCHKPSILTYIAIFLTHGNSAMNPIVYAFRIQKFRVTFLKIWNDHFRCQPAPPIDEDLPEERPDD
The test can be described thus: Inhibition binding assay, human adenosine A1 receptor membranes, [3H]DPCPX. The note with it: 1 nM [3H]DPCPX, 25° C., 1 h; IC50 converted to Ki with Cheng-Prusoff; read-out: A1 pKi (converted). The method, boiled down: (§1)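 Membranes from BacMam-infected HEK293 cells (0.2 μg A2A, 1.4 μg A1) incubated 1 h at 25° C with test compound and 1 nM [3H]ZM241385 (A2A; 50 mM Tris-HCl pH 7.4) or [3H]DPCPX (A1; plus 100 mM NaCl, 10 mM MgCl2). Nonspecific: 1 μM CGS15943 or DPCPX. Filtration, scintillation; IC50 converted to Ki via Cheng-Prusoff.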

Test [2] addresses T2, human adenosine A2A receptor (Homo sapiens, UniProt P29274).
T2 construct: expressed in transfected cells; host or cells: HEK293 cells infected with BacMam
Briefly: Inhibition binding assay, human adenosine A2A receptor membranes, [3H]ZM241385. The note with it: 1 nM [3H]ZM241385, HEK293-hA2A membranes, 25° C., 1 h; IC50 converted to Ki with Cheng-Prusoff; read-out: A2A pKi (converted). Put shortly:
as §1

T2 sequence (P29274 whole entry): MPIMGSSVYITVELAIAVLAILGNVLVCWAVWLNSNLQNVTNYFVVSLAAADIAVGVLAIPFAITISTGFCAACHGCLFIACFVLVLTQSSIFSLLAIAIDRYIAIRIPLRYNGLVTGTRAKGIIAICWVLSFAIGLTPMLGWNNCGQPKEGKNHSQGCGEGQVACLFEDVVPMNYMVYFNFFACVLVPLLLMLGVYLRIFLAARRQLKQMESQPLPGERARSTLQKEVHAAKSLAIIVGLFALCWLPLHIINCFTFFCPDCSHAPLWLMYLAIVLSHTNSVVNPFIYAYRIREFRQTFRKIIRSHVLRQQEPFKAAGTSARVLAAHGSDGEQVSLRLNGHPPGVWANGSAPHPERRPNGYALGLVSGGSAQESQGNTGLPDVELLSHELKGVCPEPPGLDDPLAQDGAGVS

On to `COC(=O)CCN1CCC(CCn2nc3c(-c4cc(C)nc(C)c4)c(-c4ccccc4)nc(N)n3c2=O)CC1` [Example 2-109, methyl 3-[4-[2-[5-amino-8-(2,6-dimethyl-4-pyridyl)-3-oxo-7-phenyl-[1,2,4]triazolo[4,3-c]pyrimidin-2-yl]ethyl]-1-piperidyl]propanoate], for which the Ki in test [1] is 398 nM; in test [2], 20 nM.
For the compound `C/C=C(/C)c1nc(N)n2c(=O)n(CCC(F)(F)F)nc2c1-c1cc(C)nc(C)c1` [Example 3-9, 5-amino-8-(2,6-dimethyl-4-pyridyl)-7-[(Z)-1-methylprop-1-enyl]-2-(3,3,3-trifluoropropyl)-[1,2,4]triazolo[4,3-c]pyrimidin-3-one], the Ki is over 3160 nM in test [1] and 398 nM in test [2].
The corresponding values for `Cc1cc(-c2c(-c3ccc(F)cc3)nc(N)n3c(=O)n(CCc4ccccc4)nc23)cc(C)n1` [Example 1-87, 5-amino-8-(2,6-dimethyl-4-pyridyl)-7-(4-fluorophenyl)-2-(2-phenylethyl)-[1,2,4]triazolo[4,3-c]pyrimidin-3-one] are 501 nM and 15.8 nM.
`Cc1cc(-c2c(-c3ccccc3)nc(N)n3c(=O)n(CCCN4CCCCC4)nc23)cc(C)n1` [Example 2-111, 5-amino-8-(2,6-dimethyl-4-pyridyl)-7-phenyl-2-[3-(1-piperidyl)propyl]-[1,2,4]triazolo[4,3-c]pyrimidin-3-one]: the Ki in test [1] was over 3980 nM; in test [2], 398 nM.
For `Cc1cc(-c2c(-c3ccccc3)nc(N)n3c(=O)n(Cc4ccc(O)nn4)nc23)cc(C)n1` [Example 1-37, 5-amino-8-(2,6-dimethyl-4-pyridyl)-2-[(6-hydroxypyridazin-3-yl)methyl]-7-phenyl-[1,2,4]triazolo[4,3-c]pyrimidin-3-one], in that order: over 3160 nM and 63.1 nM.
For `CCC(c1ccc(F)cn1)n1nc2c(-c3cc(C)nc(C)c3)c(-c3ccccc3)nc(N)n2c1=O` (single isomer, unassigned) [1-38 iso-1, 5-amino-8-(2,6-dimethyl-4-pyridyl)-2-[1-(5-fluoro-2-pyridyl)propyl]-7-phenyl-[1,2,4]triazolo[4,3-c]pyrimidin-3-one], in that order: 501 nM and 63.1 nM.
For `Cc1cc(-c2c(-c3ccccc3)nc(N)n3c(=O)n(Cc4ccc(F)c(O)n4)nc23)cc(CO)n1` [Example 1-48, 5-amino-2-[(5-fluoro-6-hydroxy-2-pyridyl)methyl]-8-[2-(hydroxymethyl)-6-methyl-4-pyridyl]-7-phenyl-[1,2,4]triazolo[4,3-c]pyrimidin-3-one], in that order: over 2510 nM and 10 nM.
For the compound `[2H]c1c([2H])c([2H])c(-c2nc(N)n3c(=O)n(Cc4ccc(F)cn4)nc3c2-c2cc(C)nc(CO)c2)c([2H])c1[2H]` [Example 1-49, 5-amino-2-[(5-fluoro-2-pyridyl)methyl]-8-[2-(hydroxymethyl)-6-methyl-4-pyridyl]-7-(2,3,4,5,6-pentadeuteriophenyl)-[1,2,4]triazolo[4,3-c]pyrimidin-3-one], the Ki in test [1] is 398 nM; in test [2], 1.58 nM.
For `CCC(c1ccc(F)cn1)n1nc2c(-c3cc(C)nc(CO)c3)c(-c3ccccc3)nc(N)n2c1=O` (single isomer, unassigned) [1-46 iso-1, 5-amino-2-[1-(5-fluoro-2-pyridyl)propyl]-8-[2-(hydroxymethyl)-6-methyl-4-pyridyl]-7-phenyl-[1,2,4]triazolo[4,3-c]pyrimidin-3-one], in that order: over 3160 nM and 398 nM.
The corresponding values for `Cc1cc(-c2c(-c3ccccc3)nc(N)n3c(=O)n(CC(=O)N(C)C4CC4)nc23)cc(C)n1` [Example 2-28, 2-[5-amino-8-(2,6-dimethyl-4-pyridyl)-3-oxo-7-phenyl-[1,2,4]triazolo[4,3-c]pyrimidin-2-yl]-N-cyclopropyl-N-methyl-acetamide] are 200 nM and 1.58 nM.
For `COc1cc(-c2c(-c3ccccc3)nc(N)n3c(=O)n(Cc4ccc(F)cn4)nc23)cc(C)n1` [Example 1-78, 5-amino-2-[(5-fluoro-2-pyridyl)methyl]-8-(2-methoxy-6-methyl-4-pyridyl)-7-phenyl-[1,2,4]triazolo[4,3-c]pyrimidin-3-one], in that order: 158 nM and 0.126 nM.
Regarding `Cc1cc(-c2c(-c3ccccc3)nc(N)n3c(=O)n(C4CCCN(C)C4)nc23)cc(C)n1` (centres unmarked) [Example 2-70, 5-amino-8-(2,6-dimethyl-4-pyridyl)-2-(1-methyl-3-piperidyl)-7-phenyl-[1,2,4]triazolo[4,3-c]pyrimidin-3-one], the figures for the Ki in test [1] and in test [2] were 501 nM and 3.98 nM, respectively.
As to `Cc1cc(-c2c(-c3ccccc3)nc(N)n3c(=O)n(C4CCCNC4)nc23)cc(C)n1` (centres unmarked) [Example 2-55, 5-amino-8-(2,6-dimethyl-4-pyridyl)-7-phenyl-2-(3-piperidyl)-[1,2,4]triazolo[4,3-c]pyrimidin-3-one], the Ki in test [1] is over 3160 nM; in test [2], 251 nM.
For `Cc1cc(-c2c(-c3ccccc3)nc(N)n3c(=O)n(CCOS(C)(=O)=O)nc23)cc(C)n1` [Example 2-9, 2-[5-amino-8-(2,6-dimethyl-4-pyridyl)-3-oxo-7-phenyl-[1,2,4]triazolo[4,3-c]pyrimidin-2-yl]ethyl methanesulfonate], in that order: 631 nM and 20 nM.
For `Cc1cc(-c2c(-c3ccccc3)nc(N)n3c(=O)n(CCN(C)CC(=O)N4CCC(O)CC4)nc23)cc(C)n1` [Example 2-107, 5-amino-8-(2,6-dimethyl-4-pyridyl)-2-[2-[[2-(4-hydroxy-1-piperidyl)-2-oxo-ethyl]-methyl-amino]ethyl]-7-phenyl-[1,2,4]triazolo[4,3-c]pyrimidin-3-one], in that order: over 3160 nM and 63.1 nM.
For `Cc1cc(-c2c(-c3ccccc3)nc(N)n3c(=O)n(CCNC(C)c4nnc5ncccn45)nc23)cc(C)n1` (centres unmarked) [Example 1-92, 5-amino-8-(2,6-dimethyl-4-pyridyl)-7-phenyl-2-[2-[1-([1,2,4]triazolo[4,3-a]pyrimidin-3-yl)ethylamino]ethyl]-[1,2,4]triazolo[4,3-c]pyrimidin-3-one], in that order: over 3980 nM and 126 nM.
As to `Cc1cc(-c2c(-c3ccc(C#N)cc3)nc(N)n3c(=O)n(CCC(F)(F)F)nc23)cc(C)n1` [Example 2-36, 4-[5-amino-8-(2,6-dimethyl-4-pyridyl)-3-oxo-2-(3,3,3-trifluoropropyl)-[1,2,4]triazolo[4,3-c]pyrimidin-7-yl]benzonitrile], the Ki is over 3160 nM in test [1] and 20 nM in test [2].
The corresponding values for `Cc1cc(-c2c(-c3ccccc3)nc(N)n3c(=O)n(C[C@@H]4COCCN4)nc23)cc(C)n1` [Example 2-79, (R)-5-amino-8-(2,6-dimethylpyridin-4-yl)-2-(morpholin-3-ylmethyl)-7-phenyl-[1,2,4]triazolo[4,3-c]pyrimidin-3(2H)-one] are 794 nM and 15.8 nM.
For `Cc1cc(-c2c(-c3ccccc3)nc(N)n3c(=O)n(C(CC4COCCN4)c4ccccc4)nc23)cc(C)n1` (centres unmarked) [Example 1-103, 5-amino-8-(2,6-dimethyl-4-pyridyl)-2-(2-morpholin-3-yl-1-phenyl-ethyl)-7-phenyl-[1,2,4]triazolo[4,3-c]pyrimidin-3-one], in that order: 1000 nM and 15.8 nM.
